Source: patent publication US4036840A, “2-Substituted-s-triazolo[1,5a]pyrimidines” (ICN Pharmaceuticals, priority 1975, dated 1977)
“Also recorded” adds a separate entry of the source.

Assays:
[1] = system: phosphodiesterase enzymes; conditions: background; cited from earlier work
[2] = system: isolated guinea pig heart preparation; experiment: Coronary dilation in isolated guinea pig heart preparation; conditions: 10 μg/ml, preliminary
[3] = system: isolated guinea pig uteri; experiment: Smooth muscle relaxation of isolated guinea pig uteri; conditions: 2-10 μg/ml
[4] = system: 3',5'-Cyclic AMP phosphodiesterase (PDE) from kidney; experiment: 3',5'-Cyclic AMP phosphodiesterase (PDE) inhibition, rabbit kidney enzyme (Fraction II, low Km); assay type: biochemical; conditions: relative to theophylline, cAMP about 1.7 × 10^-7 M, 30° C., 10 minutes, pH 7.5
[5] = system: isolated guinea pig heart preparation; experiment: Inotropic effect in isolated guinea pig heart preparation; conditions: 10 μg/ml
[6] = system: 3',5'-Cyclic AMP phosphodiesterase (PDE) from lung; experiment: 3',5'-Cyclic AMP phosphodiesterase (PDE) inhibition, rabbit lung enzyme (Fraction II, low Km); assay type: biochemical; conditions: relative to theophylline, cAMP about 1.7 × 10^-7 M, 30° C., 10 minutes, pH 7.5
[7] = system: rats; experiment: Anti-inflammatory test (Winter et al.), foot volume in rats; assay type: in vivo, rat; conditions: oral, 100 mg/kg
From the text: Following the procedure of C. A. Winter, et al as described in the Proc. Exper.

[8] = system: anesthetized dog; conditions: background; cited from earlier work

SMILES | phosphodiesterase inhibition [1] | coronary dilation [2] | smooth muscle relaxation [3] | PDE Kidney; α (I50 theophylline / I50 compound) [4] | positive inotropic effect [5] | PDE Lung; α (I50 theophylline / I50 compound) [6] | anti-inflammatory activity [7] | inhibition of foot volume [7] [%] | positive inotropic effect [8]
Cn1c(=O)c2[nH]cnc2n(C)c1=O [Theophylline] | does not selectively inhibit phosphodiesterase; also recorded: not as potent as a phosphodiesterase inhibitor as is desired |  |  |  |  |  |  |  | 
Cc1cc(N(CCO)CCO)n2nc(SCc3ccccc3)nc2n1 [Compound 29, 2-benzylthio-7-[bis(β-hydroxyethyl)amino]-5-methyl-s-triazolo[1,5a]pyrimidine] |  | coronary dialation | smooth muscle relaxants | 2.30 | positive inotropic effect | 2.10 |  |  | 
Cc1cc(O)n2nc(SCc3ccccc3)nc2n1 [Compound 24, 2-benzylthio-7-hydroxy-5-methyl-s-triazolo[1,5a]pyrimidine] |  | coronary dialation | smooth muscle relaxants | 0.75 |  | 0.75 | significant activity | 43 | 
Cc1cc(C)n2ncc(Br)c2n1 [3-bromo-5,7-dimethylpyrazolo[1,5a]pyrimidine] | significantly more active than theophylline against various phosphodiesterase enzymes |  |  |  |  |  |  |  | positive inotropic effect
